Test results: patent US5283256A, “Cholesterol-lowering agents” (Merck & Co., Inc., priority 1992, dated 1994)

Assays:
[1] = target: T1, squalene synthase (rat liver enzyme) (Rattus norvegicus, UniProt Q02769); experiment: Squalene synthase assay, rat liver microsomes; type: biochemical; conditions: 3H-farnesyl pyrophosphate, 30° C., 20 min
T1 construct: from tissue; host or cells: liver microsomes of male Charles River CD rats fed lovastatin
T1 sequence (Q02769 1-416): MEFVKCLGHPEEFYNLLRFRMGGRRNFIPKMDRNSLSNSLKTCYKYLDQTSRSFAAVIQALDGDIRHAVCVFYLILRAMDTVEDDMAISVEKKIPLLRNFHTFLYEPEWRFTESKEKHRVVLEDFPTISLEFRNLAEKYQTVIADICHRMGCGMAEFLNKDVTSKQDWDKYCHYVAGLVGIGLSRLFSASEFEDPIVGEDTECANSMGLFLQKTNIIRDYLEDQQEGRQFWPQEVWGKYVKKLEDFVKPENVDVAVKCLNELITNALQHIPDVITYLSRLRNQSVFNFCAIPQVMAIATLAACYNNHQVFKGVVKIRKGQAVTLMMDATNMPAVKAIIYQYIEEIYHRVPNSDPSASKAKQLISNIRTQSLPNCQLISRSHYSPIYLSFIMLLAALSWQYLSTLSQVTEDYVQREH
Experimental: The intrinsic squalene synthase inhibitory activity of representative compounds of this invention was measured by the standard in vitro protocol described below: […] Male, CHARLES RIVER CD rats (120 to 150 g) were fed a diet containing 0.1% lovastatin for 4 days. […] The homogenate was centrifuged twice at 20,000×g for 15 min. at 4° C., discarding the pellet each time. The supernatant was then centrifuged at 100,000×g for 1 hr at 4° C. The resulting microsomal pellet was resuspended in a volume of the above homogenizing buffer equal to one-fifth the volume of the original homogenate. […] The microsomal suspensions were stored in aliquots at -70° C. squalene synthase activity in these aliquots is stable for a least several months. Squalene Synthase Assay Reactions were performed in 1.2 mL polypropylene tube strips of 8. Buffer mixture and substrate mixture for the assay were prepared from the following solution: Buffer mixture contains 270 mM HEPES, pH 7.5, 20 mM Potassium fluoride and 5.4 mM Dithiothreitol (DTT). […] 400 μL of heptane layer was then removed into a minivial and mixed with 2.5 mL of scintillation fluid and the radioactivity was determined by liquid scintillation counting. […] Percent inhibition is calculated by the formula: [formula] IC50 values were determined by plotting the log of the concentration of the test compound versus the percentage inhibition. […]

[2] = target: T2, squalene synthase (human HepG2 enzyme) (Homo sapiens, UniProt P37268); experiment: Squalene synthase assay, human HepG2 cell enzyme; type: biochemical; conditions: 3H-farnesyl pyrophosphate, 30° C., 20 min
T2 construct: The resulting pellet from the 100,000×g centrifugation, containing the squalene synthase; endogenous in cells; host or cells: HepG2 (ATCC HB 8065), microsomal pellet of sonicated cells
T2 sequence (P37268 1-417): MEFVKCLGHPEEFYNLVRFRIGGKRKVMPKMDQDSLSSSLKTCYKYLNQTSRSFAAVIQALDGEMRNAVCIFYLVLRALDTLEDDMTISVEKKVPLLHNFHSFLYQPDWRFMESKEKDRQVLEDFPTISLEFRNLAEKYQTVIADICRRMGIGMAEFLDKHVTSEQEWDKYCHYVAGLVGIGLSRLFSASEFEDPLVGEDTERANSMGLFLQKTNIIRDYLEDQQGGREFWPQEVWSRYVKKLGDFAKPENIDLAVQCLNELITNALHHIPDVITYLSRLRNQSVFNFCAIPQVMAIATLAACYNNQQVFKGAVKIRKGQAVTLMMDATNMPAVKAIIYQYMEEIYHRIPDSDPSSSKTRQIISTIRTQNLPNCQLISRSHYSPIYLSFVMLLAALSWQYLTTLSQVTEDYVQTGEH
Experimental: The intrinsic squalene synthase inhibitory activity of representative compounds of this invention was measured by the standard in vitro protocol described below:
PREPARATION OF HUMAN HepG2 Cell ENZYME
1. SOURCE: HEPG2 CELL LINE (Liver, hepatoblastoma, Human) ATCC No. HB 8065
2. CELL GROWTH AND MAINTENANCE
Culture Medium: Minimum essential medium (MEM) with non-essential amino acids, sodium pyruvate, and 10% fetal bovine serum. The medium was changed twice weekly. […] The growth medium was prepared as listed below.
SUBCULTURE PROCEDURE: The medium was removed and washed with PBS (Phosphate-Buffered Saline 15.6 mM, pH 7.0). Fresh trypsin (0.25%)-EDTA (0.02%) with Hank's Balanced Salt solution was added and the flask was allowed to stand for a minute before the trypsin solution was removed. The flask was incubated at 37° C. until cells detached. Fresh medium was added and the cells were dispersed and dispensed into new flasks. Subcultivation ratio: 1:6. […]
HARVEST: The medium was removed and the cells were washed with PBS. […] Cells were counted (2.5×10^9 yield from 18 flasks (75 cm^2)), and resuspended in 10 mL of 50mM HEPES (N-[2-Hydroxyethyl]piperazine-N'-[2-ethane sulfonic acid]) containing 5 mM MgCl2, 2 mM MnCl2, 10 mM DTT, pH 7.5 (enzyme suspension buffer). […]

farnesyl transferase = farnesyl transferase (Homo sapiens, UniProt P49354+P49356); experiment: Farnesyl-transferase assay (Ras farnesylation in vitro); type: biochemical; conditions: ras-CVLS, 3H-FPP 100 nM; 60 min, room temperature; read-out: Farnesyl transferase IC50 (inhibition of Ras farnesylation in vitro)
Experimental: FARNESYL-TRANSFERASE ASSAY
I. PREPARATION OF SOLUTIONS REQUIRED FOR THE ASSAY
203.3 g MgCl2 was dissolved in 1.0 L distilled water, and filtered through a sterile filter and stored at 4° C.
264.5 g of HEPES was added to 700 mL distilled water followed by 56 mL of 1.0M MgCl2 The pH was adjusted to 7.5 with sodium hydroxide and the volume was brought to 1000 mL. The solution was filtered through a sterile filter and stored at 4° C.
iii. 0.5M Dithiothreitol (DTT, MW=154.24)
77.12 mg of DTT was dissolved in 1.0 mL of distilled water. A few drops of 10N NaOH was added to get the DTT to go into solution. 0.5M DTT was divided into 500 μL aliquots and stored at -20° C.
iv. Preparation of Assay Buffer (Prepare fresh daily)
100 μL of 0.5M DTT was added to 900 μL of 1.1M HEPES, pH 7.5 and 55.5 mM MgCl2 to yield a 10X buffer consisting of 1.0M HEPES, pH 7.5, 50 mM MgCl2 and 50 mM DTT.
v. Preparation of ^3 H-FPP
The ^3 H-FPP (NEN #NET-1042, MW=433.3) was used directly from the bottle as provided by NEN. The stock concentration of the ^3 H-FPP was 25 μM.
vi. Preparation of the reaction mix for Totals and unknown samples (on ice)
The reaction mix was prepared as below: […]
x. The filter mats were placed in counting bags, 30 mL of LKB β-scint cocktail was added and the filter mats were counted for 120 sec in the LKB β-plate counter […]
Percent inhibition was calculated according to the following equation: [formula] […]

Ras farnesylation = conditions: Hancock et al., Casey et al., Schafer et al.; cited from earlier work

SMILES	IC50 [1] [nM]	IC50 [2] [nM]	IC50 (farnesyl transferase) [nM]	Inhibition of Ras farnesylation in vivo (in words) (Ras farnesylation)
CCCCCCCCCC(=O)OC1C(O)C2(CCCC(OC(C)=O)C(C)C/C=C/c3ccccc3)OC(C(=O)O)C(O)(C(=O)O)C1(C(=O)O)O2 (centres unmarked) [Zaragozic Acid D2]	6	2	100	–
CCCCCCCC(=O)OC1C(O)C2(CCCC(OC(C)=O)C(C)C/C=C/c3ccccc3)OC(C(=O)O)C(O)(C(=O)O)C1(C(=O)O)O2 (centres unmarked) [Zaragozic Acid D]	6	1	100	–
CC[C@H](C)C(=O)O[C@H]1CCC=C2C=C[C@H](C)[C@H](CC[C@@H]3C[C@@H](O)CC(=O)O3)[C@H]21 [compactin]	–	–	–	Inhibition of Ras farnesylation in vivo has been demonstrated
CC[C@H](C)C(=O)O[C@H]1C[C@@H](C)C=C2C=C[C@H](C)[C@H](CC[C@@H]3C[C@@H](O)CC(=O)O3)[C@H]21 [lovastatin]	–	–	–	Inhibition of Ras farnesylation in vivo has been demonstrated
